Reference: paper PMC4015918, “Conjugation to a SMAC mimetic potentiates sigma-2 ligand induced tumor cell death in ovarian cancer” (Molecular Cancer, 2014)

Legend:
sigma-1 receptor = molecular target: T1, sigma-1 receptor (Cavia porcellus, UniProt Q60492); assay: Sigma-1 receptor binding, [3H](+)-pentazocine displacement in guinea pig brain membrane homogenates; details: inhibiting binding of [3H](+)-pentazocine to guinea pig brain homogenates; mean ± S.E.M., at least three experiments
T1 construct: guinea pig brain (sigma-1 assay) or rat liver (sigma-2 assay) membrane homogenates; from tissue; host or cells: guinea pig brain membrane homogenate
T1 sequence (Q60492 whole entry): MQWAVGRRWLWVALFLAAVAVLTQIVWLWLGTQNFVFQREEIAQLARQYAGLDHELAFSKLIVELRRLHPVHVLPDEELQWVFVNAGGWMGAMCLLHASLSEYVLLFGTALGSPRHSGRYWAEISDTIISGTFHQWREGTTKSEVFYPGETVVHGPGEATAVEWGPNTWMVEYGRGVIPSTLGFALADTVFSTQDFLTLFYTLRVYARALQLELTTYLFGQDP
Experimental: The sigma-1 and sigma-2 receptor binding affinities of SW IV-134 were determined as previously described. Briefly, guinea pig brain (sigma-1 assay) or rat liver (sigma-2 assay) membrane homogenates (~300 μg protein) were diluted with 50 mM Tris-HCl, pH 8.0 and incubated with the radioligand {~5 nM [^3H](+)-pentazocine (34.9 Ci/mmol; sigma-1 assay) or ~5 nM [3H](+)-DTG (58.1 Ci/mmol; sigma-2 assay)} and SW IV-134 with concentrations ranging from 0.1 nM to 10 μM in a total volume of 150 μL in 96-well plates at 25°C. […] Each filter was washed three times with 200 μL of ice-cold wash buffer, and the bound radioactivity quantified using a Wallac 1450 MicroBeta liquid scintillation counter (Perkin Elmer, Boston, MA). Nonspecific binding was determined in the presence of 10 μM cold haloperidol. […]
Table S1. […] The sigma-1 and sigma-2 receptor binding affinities of S W I V-134 were determined as previously described (22). For details see also the Materials and Methods section. a Mean ± S .E .M .K i values were determined by at least three ex periments. b Ki for inhibiting the binding of [ 3H] […]

SKOV3-Luc xenografts = assay: Intraperitoneal SKOV3-Luc xenograft model of ovarian cancer (bioluminescence imaging, survival); format: in vivo, SCID mice; details: for Tumor response by bioluminescence signal intensity during treatment: start 7 days after inoculation, first week onward; for Median survival: daily i.p. for 3 weeks, 10 mice per group followed, vehicle 74 days
Source text: Figure 6 SW IV-134 is a potent single-agent cancer drug in a peritoneal mouse xenograft model of ovarian cancer. (A) Female SCID mice were inoculated intraperitoneally with 5 × 10^6 SKOV3-Luc cells. Treatment was initiated with intraperitoneal injections of SW43, SW IV-134, or vehicle control 7 days after tumor cell inoculation, and continued for a total of 3 weeks. Mice were imaged once a week during the treatment period. Change in bioluminescence photon flux during treatment in each experimental arm (n = 15) was evaluated. Bioluminescent signals at each time point were averaged per treatment group (mean ± SEM). Significant differences were noted between vehicle vs. SW IV-134 and SW43 vs. SW IV-134 (p < 0.0097, one-way ANOVA). (B) Bioluminescent images at the end of the treatment (day 21) of one representative mouse per treatment arm (n = 15). […] (C) Kaplan-Meier survival analysis. At the end of the 3 week treatment, 5 mice from each experimental group were subjected to necropsy. The remaining 10 mice from each treatment group were followed until death to examine overall survival (p < 0.0108, Log-rank test).
All studies were performed in accordance with an animal protocol approved by the Washington University Institutional Animal Care Facility. Female severe combined immunodeficient mice (SCID) were purchased from Taconic Farms (Hudson, NY) at age 6 weeks. SKOV3-Luc cells (5 × 10^6) were inoculated intraperitoneally and mice were randomized 7 days later into one of the three treatment groups according to their baseline luciferase activity employing bioluminescence imaging (BLI). For bioluminescence imaging, mice were injected intraperitoneally with 150 μg/g D-luciferin (Biosynth, Naperville, IL) in PBS, anesthetized with 2.5% isoflurane, and imaged with a charge-coupled device (CCD) camera-based bioluminescence imaging system (IVIS 100; Caliper, Hopkinton, MA; exposure time 300 seconds, binning 16, field of view 12, f/stop 1, open filter).
(§1) In vivo experiments were conducted with 15 mice per treatment group. Treatment involved daily intraperitoneal injections with 90 μL of SW43 (7.5 mM stock), SW IV-134 (7.5 mM stock), or vehicle-only (25% cremophor in H2O) for 3 weeks. Tumor burden was monitored by bioluminescence imaging once a week during the treatment period. At the end of the treatment, 5 mice were randomly removed per treatment group and submitted for necropsy to the Washington University Department of Comparative Medicine. Blood samples were collected by intracardiac withdrawal prior to necropsy for chemistry and hematology work-up. In addition, various key organs were harvested for gross and histopathological examination. The remaining 10 mice from each treatment group were followed over time to examine overall survival. For survival studies, actual death or poor physical condition/large tumor size meeting criteria for euthanasia, constituted a death event.

[1] = Adverse effects after 3 weeks of intraperitoneal treatment: necropsy, complete blood count, serum chemistries; format: in vivo, SCID mice; details: for Peritonitis at necropsy: also seen in vehicle treated mice
Experimental: as §1
Supplementary file 1476-4598-13-50-S6.pdf: Additional file 6: Table S2 Complete blood count and serum chemistries for severe combined immunodeficient (SCID) mice treated with SW IV-134, SW43, and vehicle control. SCID mice were treated daily with intra-peritoneal injections of SW IV-134, SW43, and vehicle control for 3 weeks. At the end of treatment, blood was collected from mice in each treatment group and analyzed for hemoglobin, white blood count, and platelets. Serum chemistries were also obtained to determine the levels of liver enzymes aspartate aminotransferase (AST) and alanine aminotransferase (ALT), renally cleared metabolites blood urea nitrogen (BUN) and creatinine, as well as total protein and glucose. The mice treated with SW134 were noted to have a statistically significant decrease in hemoglobin and an increase in white blood count compared to those treated with SW43 or vehicle control. Click here for file […]
Table S2: Complete b l o od count and ser um chemistries f or SCI D mice treated with SW IV-134, SW43, and vehicle. SC ID m ic e were treated daily with intra- peritoneal injections of SW 134, SW 43, and vehicle control fo r 3 weeks. At the end of treatment, bloo d was co lle ct ed from mice in each treatment gro up and analyzed for hemoglobin, w hit e bloo d co un t , and plate lets. S e r um chemistries were also obtained to determine the levels of l iv e r enzymes as pa rt at e aminotransferase ( A ST ) and alanine aminotransferase (ALT), renally cleared metabolites blood urea nitrogen ( BUN) and creatinine, as well as tot al protein a nd gl uco s e. The mice treated w it h SW IV- 134 were no te d to have a statistically significant decrease in hemoglobin and an increase in w hit e bloo d co u nt compared to those treated with SW43 or vehicle control.

[2] = daily i.p. 90 μL of 7.5 mM stock
[3] = SCID mice, daily i.p. 3 weeks, end of treatment

## COc1ccc(C)cc1NC(=O)OC1CC2CCCC(C1)N2CCCCCCCCCCN (stereo not shown) [SW43, reference compound]
sigma-1 receptor
  Ki: 0.134 ± 0.0119 µM
SKOV3-Luc xenografts; [2]
  Tumor response by bioluminescence signal intensity during treatment: signal intensity increased
SKOV3-Luc xenografts
  Median survival: 76.5 days
[1]; [3]
  ALT, mean: 56.0 u/L
  BUN, mean: 22.3 mg/dL
  Creatinine, mean: 0.3 mg/dL
  Hemoglobin, mean: 11.7 g/dL
  Total bilirubin, mean: 0.1 mg/dL
  Total protein, mean: 5.8 g/dL
  WBC, mean: 3.2 103 /µl
[1]; i.p. daily for 3 weeks
  Peritonitis at necropsy: mild to moderate peritonitis

## COc1ccc(C)cc1NC(=O)OC1CC2CCCC(C1)N2CCCCCCCCCCN[C@@H](C)C(=O)N[C@H](C(=O)N1CCC[C@H]1C(=O)N[C@@H]1CCCc2ccccc21)C(C)(C)C (stereo partly shown) [SW IV-134]
sigma-1 receptor
  Ki: 5.74 ± 0.476 µM
SKOV3-Luc xenografts; daily i.p. 90 μL of 7.5 mM stock, day 21
  Bioluminescence signal intensity at the end of the 3 week treatment: significantly lower than both the SW43 and the vehicle-only treatment groups
SKOV3-Luc xenografts; [2]
  Tumor response by bioluminescence signal intensity during treatment: Tumor regression was evident by the end of the first week of treatment
SKOV3-Luc xenografts
  Median survival: 86.5 days
SKOV3-Luc xenografts; intraperitoneal metastatic model
  Extension of median survival: 10 days
[1]; [3]
  ALT, mean: 84.0 u/L
  AST, mean: 91.4 u/L
  BUN, mean: 24.8 mg/dL
  Creatinine, mean: 0.4 mg/dL
  Glucose, mean: 103.6 mg/dL
  Hemoglobin, mean: 9.5 g/dL
  Platelet, mean: 1063.8 103 /µl
  Total bilirubin, mean: 0.1 mg/dL
  Total protein, mean: 6.0 g/dL
  WBC, mean: 19.3 103 /µl
[1]; i.p. daily for 3 weeks
  Splenomegaly: mild splenomegaly
  Peritonitis at necropsy: mild to moderate peritonitis
